The source made the active and inactive calls. How the calls were made is not given here.
Molecular target: Peptidyl-prolyl cis-trans isomerase FKBP1A (Homo sapiens) (UniProt P62942)
Assay: FKBP12 binders, biophysical, NMR detection (AID 608)
Conditions: NMR binding, purified FKBP12

Peptidyl-prolyl cis-trans isomerase FKBP1A (Homo sapiens), sequence (P62942 whole entry, looked up): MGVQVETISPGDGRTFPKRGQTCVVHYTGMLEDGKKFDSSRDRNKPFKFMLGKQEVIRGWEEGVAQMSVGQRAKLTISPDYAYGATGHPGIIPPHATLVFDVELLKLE

Compound	Kd
Nc1ccc(S(=O)(=O)N2CCCCC2)cc1	> 4 mM (inactive)
CC1=C(C(N)=O)C(c2ccco2)C(C(N)=O)=C(C)N1	> 4 mM (inactive)
O=C(Nc1nc2ccccc2s1)c1ccc(=O)[nH]n1	> 4 mM (inactive)
O=[n+]1c(CO)c(CO)n([O-])c2ccccc21	> 4 mM (inactive)
O=C(O)C1CSC(c2cc3ccccc3nc2Cl)N1 (configuration not stated)	> 4 mM (inactive)
NC(=O)CN1CCC(c2nc3ccccc3[nH]2)CC1	> 4 mM (inactive)
COc1cc(C(=O)O[C@H]2CC[C@@]3(C)[C@@H]4CC[C@H]5[C@]6(O)C[C@H](O)[C@@]7(O)[C@@H](CN8C[C@@H](C)CC[C@H]8[C@@]7(C)O)[C@]6(O)C[C@@]53OC24O)cc(OC)c1OC	> 4 mM (inactive)
Cc1ccccc1CSc1nncn1N	> 4 mM (inactive)
CCCCCC(=O)Cc1cc(O)cc(O)c1C(=O)Oc1cc(CC(=O)CCCCC)c(C(=O)O)c(OC)c1	> 4 mM (inactive)
N=C1/C(=C\c2ccco2)C(=O)N=C2SC=NN12	> 4 mM (inactive)
NC(=O)c1cccc(N2C(=O)C=CC2=O)c1	> 4 mM (inactive)
Clc1ncnc2[nH]ncc12	> 4 mM (inactive)
C=C1C2CC[C@@]3(C)[C@H](c4ccoc4)OC(=O)C[C@]13O[C@H]1C[C@H](OC(C)=O)C(C)(C)[C@H](CC(=O)OC)[C@@]21C	> 4 mM (inactive)
O=c1[nH]cc(NCc2ccco2)c(=O)[nH]1	> 4 mM (inactive)
N#Cc1cc(-c2ccccc2)oc1N	> 4 mM (inactive)
NCc1ccccc1N1CCOCC1	> 4 mM (inactive)
Cc1cc(C(=O)NCc2cccnc2)cs1	> 4 mM (inactive)
Cc1nc2nc(Cc3ccccc3)nn2c(C)c1Cl	> 4 mM (inactive)
NC12CC3CC(C1)CC(CC(=O)O)(C3)C2	> 4 mM (inactive)
COC(=O)c1cc2ccccc2cn1	> 4 mM (inactive)
OCc1nccn1Cc1ccccc1	> 4 mM (inactive)
Cc1csc(NC(=O)c2ccoc2C)n1	> 4 mM (inactive)
Cc1ccc(=O)[nH]c1	> 4 mM (inactive)
NC(=O)c1ccc(N=Cc2ccc[nH]2)cc1	> 4 mM (inactive)

Compound	Kd
N#C/C(=C\c1ccc[nH]1)S(=O)(=O)c1ccccc1	> 4 mM (inactive)
CC(=O)OC1CCC23C(=O)OC45CCC(C6=CC(=O)OC6)C4(C)CCC2C5CCC3(O)C1 (configuration not stated)	> 4 mM (inactive)
CCSc1n[nH]c(=O)[nH]c1=O	> 4 mM (inactive)
COc1ccc(C(N)=O)cc1N	> 4 mM (inactive)
Cc1cc(OCC(=O)N2CCOCC2)c(C(C)C)cc1Cl	inactive
O=C1CCN(c2ccccc2)N1	> 4 mM (inactive)
COc1ccc(N2C(=N)C(C)(C)NC2=O)cc1	> 4 mM (inactive)
COc1ccccc1NC(=O)c1ccc(C)s1	> 4 mM (inactive)
CN(C)C(=S)Nc1ccc([N+](=O)[O-])cc1	> 4 mM (inactive)
O=C(Nc1ccccc1)c1cnc2n(c1=O)CCS2	> 4 mM (inactive)
O=S1(=O)CCC(NC(=S)Nc2ccc(O)cc2)C1 (configuration not stated)	> 4 mM (inactive)
O=C(O)c1ccc2c(c1)OCCCO2	> 4 mM (inactive)
CC1CC[C@@]2(OC1)O[C@H]1CC3C4CC[C@@H]5C[C@@H](O)CC[C@]5(C)C4CC[C@]3(C)[C@H]1[C@@H]2C (some centres not stated)	> 4 mM (inactive)
NC[C@H]1O[C@H](O[C@H]2[C@H](O)[C@@H](O[C@H]3O[C@H](CO)[C@@H](O)[C@H](N)[C@H]3O)[C@H](N)C[C@@H]2N)[C@H](N)[C@@H](O)[C@@H]1O	> 4 mM (inactive)
O=C(O)C(O)C(O)C(O)C(O)C(=O)O (configuration not stated)	> 4 mM (inactive)
Nc1cc(=O)[nH]c(=S)n1-c1ccc(F)cc1	> 4 mM (inactive)
O=C(O)CSCc1ccc(Cl)cc1	> 4 mM (inactive)
O=C(C1COc2ccccc2O1)N1CCOCC1 (configuration not stated)	inactive
CCn1nnnc1Oc1ccc(Cl)cc1	> 4 mM (inactive)
O=C(Nc1c[nH]c(=O)[nH]c1=O)c1ccccc1F	> 4 mM (inactive)
COc1ccc(-c2cc3nc4n(c(=O)c3s2)CCC4)cc1	> 4 mM (inactive)
NC(C(=O)O)C(O)C(=O)O (configuration not stated)	> 4 mM (inactive)
CC(C)c1c(O)ccc2c1CCC1[C@@](C)(CO)CCC[C@]21C (some centres not stated)	> 4 mM (inactive)
CNC(=O)Cn1c(=O)n(C)c2ccccc21	> 4 mM (inactive)

Compound	Kd
O=C(NCc1ccccc1F)c1cccs1	> 4 mM (inactive)
CC(=O)N(c1ccccc1)C1C=CS(=O)(=O)C1 (configuration not stated)	> 4 mM (inactive)
COc1cc(O)c(C)c(O)c1	> 4 mM (inactive)
Cc1nnc(NCc2ccc3c(c2)OCO3)[nH]c1=O	> 4 mM (inactive)
O=C1Nc2ccccc2C1C1(O)C(=O)Nc2ccc(F)cc21 (configuration not stated)	> 4 mM (inactive)
COc1cc(C(=S)N2CCC(C(N)=O)CC2)ccc1O	> 4 mM (inactive)
CC1CCC(N2CCN(c3ncccn3)CC2)CC1 (configuration not stated)	> 4 mM (inactive)
COc1cc2c(cc1-c1cc3cc4ccoc4cc3oc1=O)OCO2	> 4 mM (inactive)
NC(=O)c1cccc2c(=O)oc3ccccc3c12	> 4 mM (inactive)
Cc1occc1C(=O)N1CCN(S(C)(=O)=O)CC1	> 4 mM (inactive)
CC(=O)Oc1ccc(N2C(=O)C3C4C=CC(O4)C3C2=O)cc1 (configuration not stated)	> 4 mM (inactive)
Clc1ccccc1OCCn1ccnc1	> 4 mM (inactive)
COc1ccc(NC(=O)C(N)=O)cc1Cl	> 4 mM (inactive)
O=C(Nc1ccccc1)Nc1ccccc1	> 4 mM (inactive)
Cc1noc(C)c1C(=O)Nc1sc(C)c(C)c1C#N	> 4 mM (inactive)
Cc1cc(N)n(C2CCOC(C)(C)C2)n1 (configuration not stated)	> 4 mM (inactive)
O=C(O)/C=C1\NC(=O)c2ccccc21	> 4 mM (inactive)
CNC(=O)C(=O)Nc1cccc(Cl)c1	> 4 mM (inactive)
Cn1ncc(C(=O)O)c1-c1ccccc1	> 4 mM (inactive)
O=C1C[C@@H](c2ccc(O)cc2)Oc2cc(O)cc(O)c21	> 4 mM (inactive)
O=C(CS(=O)(=O)c1ccccc1)Nc1nccs1	> 4 mM (inactive)
COc1ccc2c(Cl)c(C(=O)N3CCOCC3)sc2c1	inactive
CCOC(=O)c1cc(C)[nH]n1	> 4 mM (inactive)
CC(C)(C)NC(=O)N1CCC(C(N)=O)CC1	> 4 mM (inactive)

Compound	Kd
O=C(O)c1cnn2ccccc12	> 4 mM (inactive)
CN(c1ccccc1C(=O)N1CCCC1)S(C)(=O)=O	> 4 mM (inactive)
CSc1ccccc1NC(=O)c1ccoc1C	> 4 mM (inactive)
Cc1nc(-c2cccc(C(=O)O)c2)cs1	> 4 mM (inactive)
CC1CN(C(=O)c2sc3cccc(F)c3c2Cl)CC(C)O1 (configuration not stated)	> 13.6 mM (inactive)
NC(=O)C1CCN(C(=O)c2ccco2)CC1	> 4 mM (inactive)
O=C(O)C1CNc2ccccc2O1 (configuration not stated)	> 4 mM (inactive)
O=C1CC(N2CCC(O)CC2)C(=O)N1c1ccc(F)cc1 (configuration not stated)	> 4 mM (inactive)
Nc1ccc(CN2CCOCC2)cc1	> 4 mM (inactive)
c1ccc(C2NCCc3[nH]cnc32)cc1 (configuration not stated)	> 4 mM (inactive)
COCCn1c(SC)nc2c1c(=O)[nH]c(=O)n2C	> 4 mM (inactive)
CCOC(=O)C1CCN(c2ccc(C#N)cc2)CC1	> 4 mM (inactive)
Cc1cc(-c2ccc(Cl)cc2)n2nc(N)nc2n1	> 4 mM (inactive)
NCCCCNCCCN	> 4 mM (inactive)
c1ccc(-c2csc(Nc3cccnc3)n2)nc1	> 4 mM (inactive)
O=C(NCc1ccncc1)c1cccc(F)c1	inactive
OCC1Cc2ccccc2CN1 (configuration not stated)	> 4 mM (inactive)
Nc1cc(C(=O)N2CCCC2)cc(C(=O)N2CCCC2)c1	> 4 mM (inactive)
Cn1c(C(=O)O)ccc1S(N)(=O)=O	> 4 mM (inactive)
COC1=CC(=O)C(O)=C/C1=C\C=C\c1ccccc1	> 4 mM (inactive)
O=C(O)c1cnc2sc3ccccc3n2c1=O	> 4 mM (inactive)
COc1cc(C(C)=O)ccc1OCC(O)Cn1ccnc1 (configuration not stated)	> 4 mM (inactive)
NCc1ccc(S(=O)(=O)O)cc1	> 4 mM (inactive)
NC(=O)CSc1nnc(-c2cccnc2)o1	> 4 mM (inactive)

Compound	Kd
COC(=O)C(O)c1ccccc1 (configuration not stated)	> 4 mM (inactive)
COc1ccc(-c2cc(=O)c3c(O)cc(O)c(-c4cc(-c5cc(=O)c6c(O)cc(O)cc6o5)ccc4OC)c3o2)cc1	> 4 mM (inactive)
Nc1ncnc2c1ncn2CCOc1ccccc1	> 4 mM (inactive)
CC(=O)Nc1nnc(-c2ccncc2)s1	> 4 mM (inactive)
CC12CCCC(O)(C1)C1CC(C)(C)C1CC2 (configuration not stated)	> 4 mM (inactive)
c1ccc(CSc2ncccn2)cc1	> 4 mM (inactive)
COCC(=O)Nc1nc2ccc(C)cc2s1	> 4 mM (inactive)
C[C@H]1CCCC(=O)CCC/C=C/c2cc(O)cc(O)c2C(=O)O1	> 4 mM (inactive)
COC(=O)c1[nH]c2ccccc2c1C(=O)OC	> 4 mM (inactive)
Cc1n[nH]c(=S)n(/N=C/c2ccccc2)c1=O	> 4 mM (inactive)
CC1=C(/C=C/C(C)=C/C=C/C(C)=C/C=C/C=C(C)/C=C/C=C(C)/C=C/C(=O)[C@]2(C)C[C@@H](O)CC2(C)C)C(C)(C)C[C@H](O)C1	> 4 mM (inactive)
CC(C)C(=O)NCC(c1ccco1)N1CCOCC1 (configuration not stated)	> 4 mM (inactive)
O=C(/C=C/c1ccco1)NC1=NCCS1	> 4 mM (inactive)
CC(=O)OC/C=C(\C)CC/C=C(\C)CC/C=C(\C)CC/C=C(\C)CC/C=C(\C)CC/C=C(\C)CC/C=C(\C)CC/C=C(\C)CCC=C(C)C	> 4 mM (inactive)
COc1ccc2[nH]cc(CCN(C)C)c2c1	> 4 mM (inactive)
COc1ccc(-c2cn[nH]c2N)c(OC)c1	> 4 mM (inactive)
Nc1nncn1C(=O)c1ccccc1Cl	> 4 mM (inactive)
O=C(O)c1ncoc1-c1ccccc1	> 4 mM (inactive)
Cc1nn2c(=O)/c(=C/c3cccc(F)c3)sc2nc1=O	> 4 mM (inactive)
NN1C(=O)CSC1=Nc1ccccc1	> 4 mM (inactive)
CN1CCN(C2CCN(Cc3ccccc3)CC2)CC1	> 4 mM (inactive)
